Reference: publication PMC6934184, “Selective DNA-PKcs inhibition extends the therapeutic index of localized radiotherapy and chemotherapy” (The Journal of Clinical Investigation, 2019)

Target: T1, STK17A (DRAK1) (Homo sapiens, UniProt Q9UEE5)
T1 construct: purchased Thermo Fisher Scientific (Life Technologies) SelectScreen
Assay: SelectScreen LanthaScreen
Format: binding
Details: read-out: % displacement
In short: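 Percent values come from Thermo SelectScreen profiling of NU5455, combining activity and binding assays. CSF1R was run in Z'LYTE format at Km app ATP, and CAMK1 in Adapta format with ATP listed at 10.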

T1 sequence (Q9UEE5 whole entry): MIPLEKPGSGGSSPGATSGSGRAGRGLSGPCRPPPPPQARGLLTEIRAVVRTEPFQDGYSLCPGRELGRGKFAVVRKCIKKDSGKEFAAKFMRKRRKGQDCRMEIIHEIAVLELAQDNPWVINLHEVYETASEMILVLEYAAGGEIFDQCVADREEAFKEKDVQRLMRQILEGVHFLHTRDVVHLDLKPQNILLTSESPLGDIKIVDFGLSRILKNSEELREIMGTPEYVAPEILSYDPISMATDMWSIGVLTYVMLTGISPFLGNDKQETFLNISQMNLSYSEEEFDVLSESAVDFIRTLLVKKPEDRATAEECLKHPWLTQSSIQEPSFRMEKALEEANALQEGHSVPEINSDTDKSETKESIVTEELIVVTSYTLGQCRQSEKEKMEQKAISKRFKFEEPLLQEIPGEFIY

SMILES: CN(C(=O)CN1CCOCC1)c1ccc2sc3c(-c4cccc5c(=O)cc(N6CC7CCC(C6)O7)oc45)cccc3c2c1 [NU5455]
- inhibition at 1 µM: -6.6%
